Read-outs that look alike come from different tables or passages of the source.
Legend:
Format in all cases: cell-based
MDA-MB-231 mammospheres [1] = assay: Viability of MDA-MB-231 mammospheres, Alamar Blue assay (Table 1); details: for IC50: read-out: IC50 (μM), growth of MDA-MB-231 mammospheres
[2] = test system: ALDHbright subpopulation of MDA-MB-231 cells; assay: ALDEFLUOR assay (ALDH activity); details: versus control, FIG. 3
Method: The cells were stained with […] bodipy-aminoacetaldehyde (BAAA), and then cultured at 37° C. for 45 minutes. An ALDH1 inhibitor, diethyl aminobenzaldehyde (DEAB), was used as the negative control. The stained cells were assayed using BD FACS Aria III. In this case, the positive fluorescent ALDH1-expressed cells (ALDH+) were detected in a green fluorescent channel (520 to 540 nm).
While CD44+/CD24−/low phenotype has often been associated with breast CSC/progenitor cell features, yet there is no correlation between the presence of CD44+/CD24−/low cells and clinical outcome and formation of distant metastases. It is the presence of aldehyde dehydrogenase (ALDH) bright cells which separates highly tumorigenic CD44+/CD24−/low/ALDHbright population from non-tumorigenic cells. Unlike CD44+/CD24−/low, ALDH is a predictor of metastasis and is associated with a poor clinical outcome. The main role of ALDH enzymes is the detoxification of aldehydes generated in various metabolic processes into carboxylic acids. However, several ALDH isoforms are involved in retinoic acid signaling and this particular function was linked to the “stemness” of CSCs. The functional activity of ALDHs can be accurately determined by ascertaining the cellular conversion of […] (BAAA) into a fluorescent molecule BODIPY-aminoacetate (BAA). ATP-binding cassette (ABC)-transporter inhibitors in the assay buffer prevent the efflux of BAA from the cells, resulting in the accumulation of BAA in cytoplasm.

[3] = test system: MDA-MB-231 secondary mammospheres; assay: Secondary mammosphere formation (self-renewal), MDA-MB-231; details: for Number of MDA-MB-231 secondary mammospheres / Size (μm) of MDA-MB-231 secondary mammospheres: from drug-treated primary mammospheres, grown in drug-free conditions for 7 days; for propensity to form secondary mammospheres: single cells from drug-treated primary mammospheres, 7 days drug-free, FIG. 2
Method: To this purpose, drug-treated primary MDA-MB-231 mammospheres were dissociated into single cell suspensions and incubated for 7 days in ultralow attachment drug-free conditions.

MDA-MB-231 = assay: Anti-proliferative activity (MTT assay), MDA-MB-231
Method: (§1) Cells were seeded in 96-well plates and maintained for 14-16 hours, then were treated with dimethylsulfoxide (DMSO) or test compound at various concentrations (i.e., 0.312, 1.25, 5, 20 μM) for 72 hrs. The cells were then washed with phosphate buffer saline (PBS) twice, added a medium containing 3-(4,5-dimethylthiazol-2-yl)-2,5-diphenyltetrazolium bromide (MTT) at a final concentration of 0.5 mg/mL, and incubated for 4 hr at 37° C. in a humidified incubator containing 5% CO2 in air. Cells having functional succinate dehydrogenase of mitochondria would convert MTT to formazan. Then, the medium was replaced with 100 μL of DMSO for 30 min at room temperature, and the 96-well plate was read by an ELISA reader at 550 nm to get the absorbance density values. The IC50 values of death cell lines were calculated accordingly.
(§2) The Ru^TEN complexes of Example 1 were evaluated for their anti-proliferative properties in two breast cancer cell lines, namely, MCF-7 and MDA-MB-231 cells via MTT assay. […] MCF-7 is a chemotherapy-responsive breast cancer cell line of luminal subtype with high expression of estrogen receptor (ER), whereas MDA-MB-231 is a triple negative breast cancer (TNBC) or basal-like breast cancer cell ine. TNBC is defined as highly invasive cancer that lacks expression of ER, progesterone receptor (PR) and Her-2; it has one of the worst outcomes among all subtypes of breast cancers. The aggressive nature of TNBC may be related to the presence of breast cancer stem cells within the tumor; therefore, MDA-MB-231 cells are often used as a model of mammary cancer stem cells.
(§3) The cytotoxicity of Ru^TEN complexes of Example 1 was compared to that of cisplatin or oxaliplatin, which were known to induce their anticancer effects by the mode of action different from ER stress. Three CSC-selective organic compounds, salinomycin, etoposide and abamectin, were also used for comparison. Briefly, MCF-7 and MDA-MB-231 cells were respectively treated with increasing concentrations of compounds of interest for 24 or 72 hrs and then the cell viability was measured.

MCF-7 mammospheres = assay: Mammosphere formation assay, MCF-7; details: for Number of MCF-7 mammospheres / Size (μm) of MCF-7 mammospheres: primary mammospheres grown 96 hr, incubated with compound 72 hrs, >50 μm analyzed; for decrease in number of MCF-7 mammospheres / decrease in size of MCF-7 mammospheres: versus control
Method: (§4) Since the breast cancer stem cells formed a mass of colonies in the form of floating spheres without attaching to a surface of a plate, the size and number of the masses were observed by a mammosphere formation assay to determine a cancer-stem-cell-specific effect.
(§5) Single-cell suspension was cultured at a density of 1,000 to 15,000 cells/well using a MammoCult™ Human Medium kit (Stemcell Technologies Inc Vancouver, CA), and the spherical cells were counted and observed under a microscope.
(§6) The mammosphere assay is based on the concept that when cells proliferate in three-dimensional spheroid structures, only cancer cells with stem-like characteristics are able to evade anoikis.

MDA-MB-231 mammospheres [4] = assay: Cytotoxicity in MDA-MB-231 mammospheres (Table 2); details: read-out: IC50 (μM) MDA-MB-231 mammospheres 72 h
MCF-7 = assay: cells; details: for IC50: read-out: IC50 (μM) MCF-7 72 h
Method: as §1, §2, §3

MDA-MB-231 mammospheres [5] = assay: Mammosphere formation assay, MDA-MB-231 primary; details: for Number of MDA-MB-231 mammospheres / Size (μm) of MDA-MB-231 mammospheres: primary mammospheres grown 96 hr, incubated with compound 72 hrs, >50 μm analyzed; for decrease in number of MDA-MB-231 mammospheres / decrease in size of MDA-MB-231 mammospheres: versus control
Method: as §4, §5, §6

MDA-MB-231 mammospheres [6] = assay: Invasion / dispersion of spheroids into 3D collagen; details: cells incubated with compound 72 hr, FIG. 4
Description: CSCs are associated with highly invasive phenotype and it is believed that this subset of cancer cells gives rise to metastases. In order to monitor the dissemination of MCF-7 and MDA-MB-231 breast cancer spheroids, the spheroids were embedded into three-dimensional (3D) collagen scaffold using Aim Biotech 3D cell culture chips. Collagen with spheroids was introduced into the central region of the microfluidic system where it polymerized via thermal cross-linking. Cell culture media was introduced into media channels forcing spheroids to move through collagen towards the media.
Thus, whether Ru^TEN complexes and salinomycin affected the invasive properties of MDA-MB-231 spheroids was then investigated. To this purpose, MDA-MB-231 monolayer cells were incubated with compounds of interest (e.g., Ru^TEN complexes of Examplel or salinomycin) for 72 hr, then the delamination was allowed to proceed for over 28 hr. Results are depicted in FIG. 4.

[7] = 24 h, MTT, read-out: IC50 (μM) MDA-MB-231 24 h
[8] = 72 h, MTT, read-out: IC50 (μM) MDA-MB-231 72 h

## N.N.[Cl][Pt][Cl] [Cisplatin, cisplatin]
MDA-MB-231 mammospheres [1]
  viability of MDA-MB-231 mammospheres: did not affect the viability
[2]
  reduction of ALDHbright sub-population: did not affect ALDHbright cells
[3]
  Number of MDA-MB-231 secondary mammospheres: 67 ± 20
  Size (μm) of MDA-MB-231 secondary mammospheres: 103 ± 30 μm
MDA-MB-231; [7]
  IC50: 268 ± 78 µM
MDA-MB-231; [8]
  IC50: 27 ± 8 µM
MDA-MB-231; MTT
  antiproliferative activity, MDA-MB-231: only moderately active
MCF-7 mammospheres
  inhibition of mammosphere growth, MCF-7: did not show any potency in inhibiting mammosphere growth
  Number of MCF-7 mammospheres: 273 ± 108
  Size (μm) of MCF-7 mammospheres: 106 ± 14 μm
MDA-MB-231 mammospheres [4]; 72 h
  IC50: > 40 µM
MCF-7; 72 h, MTT
  IC50: 22 ± 7 µM
MCF-7; MTT
  antiproliferative activity, MCF-7: only moderately active
MDA-MB-231 mammospheres [5]
  inhibition of mammosphere growth, MDA-MB-231: did not show any potency in inhibiting mammosphere growth
  Number of MDA-MB-231 mammospheres: 136 ± 44
  Size (μm) of MDA-MB-231 mammospheres: 95 ± 25 μm

## COc1cc([C@@H]2c3cc4c(cc3[C@@H](O[C@@H]3O[C@@H]5CO[C@@H](C)O[C@H]5[C@H](O)[C@H]3O)[C@H]3COC(=O)[C@H]23)OCO4)cc(OC)c1O [Etoposide, etoposide]
[2]
  reduction of ALDHbright sub-population: 52%
[3]
  Number of MDA-MB-231 secondary mammospheres: 73 ± 22
  Size (μm) of MDA-MB-231 secondary mammospheres: 63 ± 4 μm
MDA-MB-231; Homo sapiens, MDA-MB-231, 24 h, read-out: IC50 (μM) MDA-MB-231 24 h
  IC50: > 1000 µM
MDA-MB-231; Homo sapiens, MDA-MB-231, 72 h, read-out: IC50 (μM) MDA-MB-231 72 h
  IC50: 6.4 ± 1.2 µM
MCF-7 mammospheres
  Number of MCF-7 mammospheres: 237 ± 11
  Size (μm) of MCF-7 mammospheres: 135 ± 6 μm
  decrease in number of MCF-7 mammospheres: 10-15%
  decrease in size of MCF-7 mammospheres: did not affect the size
MDA-MB-231 mammospheres [4]; Homo sapiens, MDA-MB-231, 72 h
  IC50: > 40 µM
MCF-7; Homo sapiens, MCF7, 72 h
  IC50: 0.79 ± 0.21 µM
MDA-MB-231 mammospheres [5]
  Number of MDA-MB-231 mammospheres: 107 ± 37
  Size (μm) of MDA-MB-231 mammospheres: 123 ± 20 μm
  decrease in number of MDA-MB-231 mammospheres: 10-15%
  decrease in size of MDA-MB-231 mammospheres: did not affect the size

## O=C1[O][Pt]2([NH][C@@H]3CCCC[C@H]3[NH]2)[O]C1=O [Oxaliplatin, oxaliplatin]
MDA-MB-231 mammospheres [1]
  viability of MDA-MB-231 mammospheres: did not affect the viability
[3]
  Number of MDA-MB-231 secondary mammospheres: 122 ± 10
  Size (μm) of MDA-MB-231 secondary mammospheres: 86 ± 14 μm
MDA-MB-231; [7]
  IC50: 348 ± 78 µM
MDA-MB-231; [8]
  IC50: 4.6 ± 1 µM
MCF-7 mammospheres
  inhibition of mammosphere growth, MCF-7: did not show any potency in inhibiting mammosphere growth
  Number of MCF-7 mammospheres: 274 ± 93
  Size (μm) of MCF-7 mammospheres: 107 ± 17 μm
MDA-MB-231 mammospheres [4]; 72 h
  IC50: > 40 µM
MCF-7; 72 h, MTT
  IC50: 1.1 ± 0.2 µM
MDA-MB-231 mammospheres [5]
  inhibition of mammosphere growth, MDA-MB-231: did not show any potency in inhibiting mammosphere growth
  Number of MDA-MB-231 mammospheres: 144 ± 50
  Size (μm) of MDA-MB-231 mammospheres: 99 ± 27 μm

## COc1ccc([N+]2=Cc3ccc4ccccc4[n+]3[Ru-]2[Cl])cc1.Cc1c(C)c(C)c(C)c(C)c1C.[Cl-] [Ru^TEN2, [(η6-hexamethylbenzene)RuCl(4-methoxv-N-(2-quinolinyl-methylene)-aniline)]Cl]
MDA-MB-231 mammospheres [1]
  IC50: > 20 µM
MDA-MB-231 mammospheres [6]
  dispersion of cells into collagen after 4 hr: did not exhibit significant dispersion
  dispersion of cells into collagen after 28 hr / entire incubation period: only slight dispersion
[3]
  Number of MDA-MB-231 secondary mammospheres: 186 ± 45
  Size (μm) of MDA-MB-231 secondary mammospheres: 85 ± 15 μm
  propensity to form secondary mammospheres: only slight changes in size and number of mammospheres
MDA-MB-231; [7]
  IC50: 10 ± 1 µM
MDA-MB-231; [8]
  IC50: 2.2 ± 0.3 µM
MCF-7 mammospheres
  Number of MCF-7 mammospheres: 255 ± 175
  Size (μm) of MCF-7 mammospheres: 114 ± 24 μm
MDA-MB-231 mammospheres [4]; 72 h
  IC50: > 40 µM
MCF-7; 72 h, MTT
  IC50: 4.1 ± 0.9 µM
MDA-MB-231 mammospheres [5]
  inhibition of mammosphere growth, MDA-MB-231: did not inhibit mammosphere growth
  Number of MDA-MB-231 mammospheres: 141 ± 41
  Size (μm) of MDA-MB-231 mammospheres: 98 ± 18 μm

## Cc1c(C)c(C)c(C)c(C)c1C.Clc1cccc([N+]2=Cc3ccc4ccccc4[n+]3[Ru-]2[Cl])c1.[Cl-] [Ru^TEN4, [(η6-Hexamethylbenzene)RuCl(3-chloro-N-(2-quinolinylmethylene)aniline)]Cl]
MDA-MB-231 mammospheres [1]
  IC50: 11 µM
MDA-MB-231 mammospheres [6]
  dispersion of cells into collagen after 4 hr: did not exhibit significant dispersion
  dispersion of cells into collagen after 28 hr / entire incubation period: only slight dispersion
[3]
  Number of MDA-MB-231 secondary mammospheres: 91 ± 33
  Size (μm) of MDA-MB-231 secondary mammospheres: 70 ± 6 μm
  propensity to form secondary mammospheres: drastically reduced propensity to form secondary mammospheres
MDA-MB-231; [7]
  IC50: 9.2 ± 1.3 µM
MDA-MB-231; [8]
  IC50: 1.4 ± 0.3 µM
MCF-7 mammospheres
  Number of MCF-7 mammospheres: 236 ± 88
  Size (μm) of MCF-7 mammospheres: 105 ± 18 μm
  decrease in number of MCF-7 mammospheres: 10%
  decrease in size of MCF-7 mammospheres: 17%
MDA-MB-231 mammospheres [4]; 72 h
  IC50: 7.2 ± 1.8 µM
MCF-7; 72 h, MTT
  IC50: 2.5 ± 0.7 µM
MDA-MB-231 mammospheres [5]
  Number of MDA-MB-231 mammospheres: 118 ± 17
  Size (μm) of MDA-MB-231 mammospheres: 95 ± 37 μm
  decrease in number of MDA-MB-231 mammospheres: 17%
  decrease in size of MDA-MB-231 mammospheres: 10%

## abamectin
MDA-MB-231; [7]
  IC50: 18 ± 6 µM
MDA-MB-231; [8]
  IC50: 6.4 ± 2.3 µM
MCF-7 mammospheres
  Number of MCF-7 mammospheres: 147 ± 33
  Size (μm) of MCF-7 mammospheres: 77 ± 13 μm
MDA-MB-231 mammospheres [4]; 72 h
  IC50: 4 ± 0.5 µM
MCF-7; 72 h, MTT
  IC50: 7 ± 2.2 µM
MDA-MB-231 mammospheres [5]
  Number of MDA-MB-231 mammospheres: 4 ± 1
  Size (μm) of MDA-MB-231 mammospheres: 76 ± 8 μm
